“And” between values parts separate entries of the source, which are not always exact repeats. Identical values can stand only once. Inconclusive results and toxic doses are left out. The calls were made as follows: active = survival T/C of 150% or more; inactive = T/C below 125% in these data. Residues, ends and D or L forms follow the SMILES beside them. *: point of attachment. Cbz = O=C(OCc1ccccc1)*; Bn = c1ccc(C*)cc1
Tested on: CD2F1 mice, L1210 leukemia ip, survival T/C
Test: NCI In Vivo Anticancer Drug Screen. Data for tumor model L1210 Leukemia (intraperitoneal) in CD2F1 (CDF1) mice
Details: endpoint: mean survival time, higher = longer survival
Outline: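 Ratio T/C, where T is the treated-group value and C the vehicle-dosed control value, from mice implanted with a transplantable tumor.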

[1] = dose: 100.0 mg/kg/injection, schedule: Q04DX002 (ip), vehicle: saline with Tween-80
[2] = dose: 200.0 mg/kg/injection, schedule: Q04DX002 (ip), vehicle: saline with Tween-80
[3] = dose: 100.0 mg/kg/injection, schedule: Q01DX009 (ip), vehicle: saline with Tween-80
[4] = dose: 100.0 mg/kg/injection, schedule: Q04DX003 (ip), vehicle: saline with Tween-80
[5] = dose: 200.0 mg/kg/injection, schedule: Q04DX003 (ip), vehicle: saline with Tween-80
[6] = dose: 400.0 mg/kg/injection, schedule: Q04DX003 (ip), vehicle: saline with Tween-80
[7] = dose: 200.0 mg/kg/injection, schedule: Q01DX009 (ip), vehicle: saline with Tween-80
[8] = dose: 400.0 mg/kg/injection, schedule: Q01DX009 (ip), vehicle: saline with Tween-80

Measured: T/C

CS(=O)(=O)OCCCCOS(C)(=O)=O
inactive: dose: 3.75 mg/kg/injection, schedule: Q01DX009 (ip), vehicle: saline with Tween-80 92 % of control | dose: 3.75 mg/kg/injection, schedule: Q03HX008 (ip), vehicle: saline with Tween-80 96 % of control | dose: 3.75 mg/kg/injection, schedule: Q03HX016 (ip), vehicle: saline with Tween-80 94 % of control | dose: 3.75 mg/kg/injection, schedule: Q03HX024 (ip), vehicle: saline with Tween-80 104 % of control | dose: 7.5 mg/kg/injection, schedule: Q01DX009 (ip), vehicle: saline with Tween-80 102 % of control | dose: 7.5 mg/kg/injection, schedule: Q03HX008 (ip), vehicle: saline with Tween-80 100 % of control | dose: 7.5 mg/kg/injection, schedule: Q03HX016 (ip), vehicle: saline with Tween-80 98 % of control | dose: 7.5 mg/kg/injection, schedule: Q03HX024 (ip), vehicle: saline with Tween-80 106 % of control | dose: 12.5 mg/kg/injection, schedule: Q01DX001 (ip), vehicle: saline 98 % of control | dose: 15.0 mg/kg/injection, schedule: Q01DX009 (ip), vehicle: saline with Tween-80 97 % of control | dose: 15.0 mg/kg/injection, schedule: Q01DX009 (oral), vehicle: saline with Tween-80 97 % of control | dose: 15.0 mg/kg/injection, schedule: Q03HX008 (ip), vehicle: saline with Tween-80 102 % of control | dose: 15.0 mg/kg/injection, schedule: Q03HX016 (ip), vehicle: saline with Tween-80 98 % of control | dose: 15.0 mg/kg/injection, schedule: Q03HX024 (ip), vehicle: saline with Tween-80 103 % of control | dose: 25.0 mg/kg/injection, schedule: Q01DX001 (ip), vehicle: saline 102 % of control | dose: 30.0 mg/kg/injection, schedule: Q01DX001 (ip), vehicle: saline with Tween-80 98 % of control | dose: 30.0 mg/kg/injection, schedule: Q01DX009 (ip), vehicle: saline with Tween-80 100 % of control | dose: 30.0 mg/kg/injection, schedule: Q01DX009 (oral), vehicle: saline with Tween-80 94 % of control | dose: 30.0 mg/kg/injection, schedule: Q03HX008 (ip), vehicle: saline with Tween-80 107 % of control | dose: 30.0 mg/kg/injection, schedule: Q03HX016 (ip), vehicle: saline with Tween-80 98 % of control | dose: 30.0 mg/kg/injection, schedule: Q03HX024 (ip), vehicle: saline with Tween-80 107 % of control | dose: 30.0 mg/kg/injection, schedule: Q04DX003 (ip), vehicle: saline with Tween-80 101 % of control | dose: 30.0 mg/kg/injection, schedule: Q08DX002 (ip), vehicle: saline with Tween-80 98 % of control | dose: 50.0 mg/kg/injection, schedule: Q01DX001 (ip), vehicle: saline 101 % of control | dose: 60.0 mg/kg/injection, schedule: Q01DX001 (ip), vehicle: saline with Tween-80 104 % of control | dose: 60.0 mg/kg/injection, schedule: Q01DX001 (oral), vehicle: saline with Tween-80 100 % of control | dose: 60.0 mg/kg/injection, schedule: Q04DX003 (ip), vehicle: saline with Tween-80 96 % of control | dose: 60.0 mg/kg/injection, schedule: Q08DX002 (ip), vehicle: saline with Tween-80 98 % of control | dose: 100.0 mg/kg/injection, schedule: Q01DX001 (ip), vehicle: saline 112 % of control | dose: 120.0 mg/kg/injection, schedule: Q01DX001 (ip), vehicle: saline with Tween-80 104 % of control | dose: 120.0 mg/kg/injection, schedule: Q08DX002 (ip), vehicle: saline with Tween-80 97 % of control | dose: 240.0 mg/kg/injection, schedule: Q08DX002 (ip), vehicle: saline with Tween-80 100 % of control

[Co+3].[NH-]CC(=O)O.[NH-]CC(=O)O.[NH-]CC(=O)O
inactive: dose: 25.0 mg/kg/injection, schedule: Q04DX002 (ip), vehicle: saline with Tween-80 104 % of control and 101 % of control | dose: 50.0 mg/kg/injection, schedule: Q04DX002 (ip), vehicle: saline with Tween-80 104 % of control and 96 % of control | [1] 104 % of control and 106 % of control | [2] 117 % of control

COC(=O)C(Cc1ccccc1)NC(=O)C(CSCc1ccccc1)NC(=O)OCc1ccccc1 (centres undefined) (Cbz-Cys(Bn)-Phe-OMe; configuration not given here)
inactive: dose: 100.0 mg/kg/injection, schedule: Q01DX001 (ip), vehicle: saline with Tween-80 93 % of control | [3] 91 % of control | dose: 200.0 mg/kg/injection, schedule: Q01DX001 (ip), vehicle: saline with Tween-80 95 % of control | dose: 400.0 mg/kg/injection, schedule: Q01DX001 (ip), vehicle: saline with Tween-80 89 % of control

Nc1cc2[nH]cnc2c([Se])n1
inactive: [4] 101 % of control | [5] 107 % of control

OCC1OCOC(CO)C(O)C1O (centres undefined)
inactive: dose: 100.0 mg/kg/injection, schedule: Q04DX002 (ip), vehicle: saline 114 % of control | dose: 200.0 mg/kg/injection, schedule: Q04DX002 (ip), vehicle: saline 111 % of control | dose: 400.0 mg/kg/injection, schedule: Q04DX002 (ip), vehicle: saline 100 % of control

Cc1c([C@H](C)[C@@H]2NC[C@@H](C)C[C@H]2O)ccc2c1C[C@H]1[C@H]2CC=C2C[C@@H](O)CC[C@@]21C
inactive: dose: 2.5 mg/kg/injection, schedule: Q01DX009 (ip), vehicle: Klucel (hydroxypropylcellulose) (HPC) 96 % of control | dose: 5.0 mg/kg/injection, schedule: Q01DX009 (ip), vehicle: Klucel (hydroxypropylcellulose) (HPC) 102 % of control

O=C(/C=C/c1ccccc1)Nc1cccc2ccccc12
inactive: [1] 90 % of control | [2] 105 % of control | dose: 400.0 mg/kg/injection, schedule: Q04DX002 (ip), vehicle: saline with Tween-80 94 % of control

COc1ccc(OC)c2c1CC(C(C)=O)CC2=O (centres undefined)
inactive: dose: 12.5 mg/kg/injection, schedule: Q01DX009 (ip), vehicle: water 98 % of control | dose: 25.0 mg/kg/injection, schedule: Q01DX009 (ip), vehicle: water 102 % of control | dose: 50.0 mg/kg/injection, schedule: Q01DX009 (ip), vehicle: water 106 % of control | dose: 100.0 mg/kg/injection, schedule: Q01DX009 (ip), vehicle: water 100 % of control | dose: 200.0 mg/kg/injection, schedule: Q01DX009 (ip), vehicle: water 92 % of control

O=C(O)C1C(C(=O)O)C2C3C4C1C1C2C3C41 (centres undefined)
inactive: [4] 108 % of control | [5] 104 % of control | [6] 98 % of control

CC(Cc1ccc(O)cc1)NCC(O)c1ccc(O)c(O)c1 (centres undefined)
inactive: dose: 12.5 mg/kg/injection, schedule: Q01DX009 (ip), vehicle: saline with Tween-80 102 % of control and 104 % of control | dose: 25.0 mg/kg/injection, schedule: Q01DX009 (ip), vehicle: saline with Tween-80 103 % of control and 104 % of control | dose: 50.0 mg/kg/injection, schedule: Q01DX009 (ip), vehicle: saline with Tween-80 105 % of control and 111 % of control | [3] 108 % of control and 111 % of control | [7] 103 % of control and 111 % of control | [8] 113 % of control and 112 % of control

COc1ccc(C(O)c2ccccc2C(=O)Nc2ccccc2)cc1 (centres undefined)
inactive: [4] 93 % of control | [5] 92 % of control | [6] 88 % of control

CC(=O)N(c1c(F)c(F)cc(F)c1F)c1c(F)c(F)cc(F)c1F
inactive: [3] 95 % of control | [4] 104 % of control | [7] 103 % of control | [5] 102 % of control | [8] 95 % of control | [6] 98 % of control

CCC(=O)Nc1ccccc1Cl
inactive: [4] 103 % of control | [5] 100 % of control | [6] 100 % of control

[CH3][Sn]([CH3])([Cl])[Cl]
inactive: dose: 5.0 mg/kg/injection, schedule: Q01DX009 (ip), vehicle: saline 106 % of control | dose: 10.0 mg/kg/injection, schedule: Q01DX009 (ip), vehicle: saline 98 % of control | dose: 20.0 mg/kg/injection, schedule: Q01DX009 (ip), vehicle: saline 95 % of control
